Measurements as given in ChEMBL document CHEMBL4396913, “Synthesis and biological evaluation of hybrid quinolone-based quaternary ammonium antibacterial agents” (Eur J Med Chem, 2019).
Converted amounts (≈) assume the structure as drawn. The source made the active and inactive calls. The calls are words filed in the database; no cut-off is given here.

Key:
[1] = test system: Serratia marcescens; test: Antibacterial activity against Serratia marcescens ATCC 12795 cultured in MH medium assessed as reduction in bacterial growth incubated for 48 hrs by microbroth dilution method; type: functional; conditions: ATCC 12795, 48 h
[2] = target: T1, DNA gyrase (Escherichia coli) (UniProt P0AES6+P0AES4); test: Inhibition of Escherichia coli DNA gyrase super-coiling activity using relaxed pNO1 DNA as substrate assessed as enzyme residual activity at 1 uM incubated for 30 mins by fluorescence assay relative to control; type: protein-complex assay
[3] = test system: Bacillus spizizenii; test: Antibacterial activity against Bacillus subtilis ATCC 6633 cultured in MH medium assessed as reduction in bacterial growth incubated for 48 hrs by microbroth dilution method; type: functional; conditions: ATCC 6633, 48 h
[4] = test system: Staphylococcus aureus; test: Antibacterial activity against methicillin resistant Staphylococcus aureus 6347 cultured in MH medium assessed as reduction in bacterial growth incubated for 48 hrs by microbroth dilution method; type: functional; conditions: Staphylococcus aureus, 6347, 48 h
[5] = test system: Staphylococcus epidermidis; test: Antibacterial activity against Staphylococcus epidermidis ATCC 14990 cultured in MH medium assessed as reduction in bacterial growth incubated for 48 hrs by microbroth dilution method; type: functional; conditions: ATCC 14990, 48 h
[6] = test system: Staphylococcus aureus; test: Biofilm degradation activity against Staphylococcus aureus ATCC 6538 assessed as biofilm formation at 2 times antibacterial MIC incubated for 24 hrs compound added post-biofilm formation by total biomass crystal violet staining-based method; type: functional
[7] = test system: Staphylococcus aureus; test: Biofilm degradation activity against Staphylococcus aureus ATCC 6538 assessed as biofilm formation at 4 times antibacterial MIC incubated for 24 hrs compound added post-biofilm formation by total biomass crystal violet staining-based method; type: functional
[8] = test system: Bacillus spizizenii; test: Bactericidal activity against Bacillus subtilis ATCC 6633 cultured in MH medium assessed as reduction in bacterial survival incubated for 48 hrs by microbroth dilution method; type: functional; conditions: ATCC 6633, 48 h
[9] = test system: Staphylococcus aureus; test: Antibacterial activity against Staphylococcus aureus ATCC 6538 cultured in MH medium assessed as reduction in bacterial growth incubated for 48 hrs by microbroth dilution method; type: functional; conditions: ATCC 6538, 48 h
[10] = test system: Pseudomonas aeruginosa; test: Antibiofilm activity against Pseudomonas aeruginosa ATCC 9027 assessed as biofilm formation at 0.5 times antibacterial MIC incubated for 24 hrs compound added prior to bacterial biofilm formation by total biomass crystal violet staining-based method relative to control; type: functional
[11] = test system: Proteus vulgaris; test: Antibacterial activity against Proteus vulgaris NCTC 4635 cultured in MH medium assessed as reduction in bacterial growth incubated for 48 hrs by microbroth dilution method; type: functional; conditions: NCTC 4635, 48 h
[12] = test system: Staphylococcus aureus; test: Antibiofilm activity against Staphylococcus aureus ATCC 6538 assessed as biofilm formation at antibacterial MIC incubated for 24 hrs compound added prior to bacterial biofilm formation by total biomass crystal violet staining-based method relative to control; type: functional
[13] = test system: Escherichia coli; test: Antibacterial activity against Escherichia coli ATCC 8739 cultured in MH medium assessed as reduction in bacterial growth incubated for 48 hrs by microbroth dilution method; type: functional; conditions: ATCC 8739, 48 h
[14] = test system: Proteus vulgaris; test: Bactericidal activity against Proteus vulgaris NCTC 4635 cultured in MH medium assessed as reduction in bacterial survival incubated for 48 hrs by microbroth dilution method; type: functional; conditions: NCTC 4635, 48 h
[15] = test system: Pseudomonas aeruginosa; test: Biofilm degradation activity against Pseudomonas aeruginosa ATCC 9027 assessed as biofilm formation at 2 times antibacterial MIC incubated for 24 hrs compound added post-biofilm formation by total biomass crystal violet staining-based method; type: functional
[16] = test system: Staphylococcus aureus; test: Antibacterial activity against methicillin resistant Staphylococcus aureus N315 cultured in MH medium assessed as reduction in bacterial growth incubated for 48 hrs by microbroth dilution method; type: functional; conditions: N315, 48 h
[17] = test system: Staphylococcus aureus; test: Antibiofilm activity against Staphylococcus aureus ATCC 6538 assessed as biofilm formation at 0.5 times antibacterial MIC incubated for 24 hrs compound added prior to bacterial biofilm formation by total biomass crystal violet staining-based method relative to control; type: functional
[18] = test system: Staphylococcus aureus; conditions: ATCC 25923, 10 to 40 uM
Description: Antibiofilm activity Staphylococcus aureus ATCC 25923 pre-formed mature biofilm assessed as reduction in biofilm biomass at 10 to 40 uM incubated for 24 hrs compound added post biofilm formation by crystal violet staining based assay relative to control

[19] = test system: Pseudomonas aeruginosa; test: Biofilm degradation activity against Pseudomonas aeruginosa ATCC 9027 assessed as biofilm formation at antibacterial MIC incubated for 24 hrs compound added post-biofilm formation by total biomass crystal violet staining-based method; type: functional
[20] = test system: Streptococcus pneumoniae; test: Antibacterial activity against Streptococcus pneumoniae cultured in MH medium assessed as reduction in bacterial growth incubated for 48 hrs by microbroth dilution method; type: functional
[21] = test system: Staphylococcus aureus; test: Bactericidal activity against Staphylococcus aureus ATCC 6538 cultured in MH medium assessed as reduction in bacterial survival incubated for 48 hrs by microbroth dilution method; type: functional; conditions: ATCC 6538, 48 h
[22] = test system: Serratia marcescens; test: Bactericidal activity against Serratia marcescens ATCC 12795 cultured in MH medium assessed as reduction in bacterial survival incubated for 48 hrs by microbroth dilution method; type: functional; conditions: ATCC 12795, 48 h
[23] = test system: Staphylococcus aureus; conditions: ATCC 25923, 10 to 40 uM; remark: listed apart in the source
Description: Antibiofilm activity Staphylococcus aureus ATCC 25923 pre-formed mature biofilm assessed as reduction in biofilm viability at 10 to 40 uM incubated for 24 hrs compound added post-biofilm formation by resazurin staining based assay relative to control

[24] = test system: Enterococcus hirae; test: Antibacterial activity against Enterococcus hirae ATCC 1052 cultured in BHI medium assessed as reduction in bacterial growth incubated for 48 hrs by microbroth dilution method; type: functional; conditions: ATCC 1052, 48 h
[25] = test system: Staphylococcus epidermidis; test: Bactericidal activity against Staphylococcus epidermidis ATCC 14990 cultured in MH medium assessed as reduction in bacterial survival incubated for 48 hrs by microbroth dilution method; type: functional; conditions: ATCC 14990, 48 h
[26] = test system: Escherichia coli; test: Induction of inner membrane permeabilization in Escherichia coli ATCC 8739 assessed as increase in release of cytoplasmic beta galactosidase using ONPG as substrate at 128 ug/ml incubated for 90 mins compound added with bacterial cells after lag time of about 10 mins by spectrophotometry; type: organism-based
[27] = test system: Staphylococcus aureus; test: Biofilm degradation activity against Staphylococcus aureus ATCC 6538 assessed as biofilm formation at antibacterial MIC incubated for 24 hrs compound added post-biofilm formation by total biomass crystal violet staining-based method; type: functional
[28] = test system: Pseudomonas aeruginosa; test: Biofilm degradation activity against Pseudomonas aeruginosa ATCC 9027 assessed as biofilm formation at 4 times antibacterial MIC incubated for 24 hrs compound added post-biofilm formation by total biomass crystal violet staining-based method; type: functional
[29] = test system: Pseudomonas aeruginosa; test: Bactericidal activity against Pseudomonas aeruginosa ATCC 9027 cultured in MH medium assessed as reduction in bacterial survival incubated for 48 hrs by microbroth dilution method; type: functional; conditions: ATCC 9027, 48 h
[30] = test system: Escherichia coli; test: Bactericidal activity against Escherichia coli ATCC 8739 cultured in MH medium assessed as reduction in bacterial survival incubated for 48 hrs by microbroth dilution method; type: functional; conditions: ATCC 8739, 48 h
[31] = test system: Streptococcus pneumoniae; test: Bactericidal activity against Streptococcus pneumoniae cultured in MH medium assessed as reduction in bacterial survival incubated for 48 hrs by microbroth dilution method; type: functional
[32] = test system: Enterococcus hirae; test: Bactericidal activity against Enterococcus hirae ATCC 1052 cultured in BHI medium assessed as reduction in bacterial survival incubated for 48 hrs by microbroth dilution method; type: functional; conditions: ATCC 1052, 48 h
[33] = test system: Pseudomonas aeruginosa; test: Antibiofilm activity against Pseudomonas aeruginosa ATCC 9027 assessed as biofilm formation at antibacterial MIC incubated for 24 hrs compound added prior to bacterial biofilm formation by total biomass crystal violet staining-based method relative to control; type: functional
[34] = test system: Staphylococcus aureus; test: Bactericidal activity against methicillin resistant Staphylococcus aureus 6347 cultured in MH medium assessed as reduction in bacterial survival incubated for 48 hrs by microbroth dilution method; type: functional; conditions: Staphylococcus aureus, 6347, 48 h
[35] = target: T1, DNA gyrase (Escherichia coli); test: Inhibition of Escherichia coli DNA gyrase super-coiling activity using relaxed pNO1 DNA as substrate assessed as enzyme residual activity at 10 uM incubated for 30 mins by fluorescence assay relative to control; type: protein-complex assay
[36] = test system: HEK293; test: Cytotoxicity against human HEK293 cells assessed as cell viability upto 20 uM incubated for 72 hrs by MTT assay; type: cell-based; conditions: hek293, 72 h
[37] = test system: Pseudomonas aeruginosa; test: Antibacterial activity against Pseudomonas aeruginosa ATCC 9027 cultured in MH medium assessed as reduction in bacterial growth incubated for 48 hrs by microbroth dilution method; type: functional; conditions: ATCC 9027, 48 h
[38] = test system: Staphylococcus epidermidis; test: Antibacterial activity against methicillin resistant Staphylococcus epidermidis ATCC 13199 cultured in MH medium assessed as reduction in bacterial growth incubated for 48 hrs by microbroth dilution method; type: functional; conditions: ATCC 13199, 48 h
[39] = test system: HEK293; test: Cytotoxicity against human HEK293 cells assessed as changes in cell morphology upto 20 uM incubated for 72 hrs by MTT assay; type: cell-based; conditions: hek293, 72 h
[40] = Lipophilicity, log k of the compound at 100 ug/ml by micellar electrokinetic chromatography; type: physicochemical
[41] = test system: Staphylococcus aureus; test: Bactericidal activity against methicillin resistant Staphylococcus aureus N315 cultured in MH medium assessed as reduction in bacterial survival incubated for 48 hrs by microbroth dilution method; type: functional; conditions: N315, 48 h
[42] = test system: Staphylococcus epidermidis; test: Bactericidal activity against methicillin resistant Staphylococcus epidermidis ATCC 13199 cultured in MH medium assessed as reduction in bacterial survival incubated for 48 hrs by microbroth dilution method; type: functional; conditions: ATCC 13199, 48 h

Row | SMILES | MIC [1] [µg/mL] | Activity [2] [%] | MIC [3] [µg/mL] | MIC [4] [µg/mL] | MIC [5] [µg/mL] | Activity [6] [%] | MBC [8] [µg/mL] | MIC [9] [µg/mL] | MIC [11] [µg/mL] | MIC [13] [µg/mL] | MBC [14] [µg/mL] | MIC [16] [µg/mL] | MIC [20] [µg/mL] | MBC [21] [µg/mL] | MBC [22] [µg/mL] | MIC [24] [µg/mL] | MBC [25] [µg/mL] | MBC [29] [µg/mL] | MBC [30] [µg/mL] | MBC [34] [µg/mL] | also measured
1 | O=C(O)c1cn(C2CC2)c2cc(N3CCNCC3)c(F)cc2c1=O [CIPROFLOXACIN] | 0.125 (≈ 0.377 µM) | 7 | 0.032 (≈ 0.0966 µM) | 0.25 (≈ 0.754 µM) | 0.25 (≈ 0.754 µM) | 17 | 0.063 (≈ 0.19 µM) | 0.25 (≈ 0.754 µM) | 0.008 (≈ 0.0241 µM) | 0.032 (≈ 0.0966 µM) | 0.008 (≈ 0.0241 µM) | 1 (≈ 3.02 µM) | 8 (≈ 24.1 µM) | 0.5 (≈ 1.51 µM) | 0.125 (≈ 0.377 µM) | 128 (≈ 386 µM) | 0.25 (≈ 0.754 µM) | 0.5 (≈ 1.51 µM) | 0.032 (≈ 0.0966 µM) | 0.5 (≈ 1.51 µM) | Activity [7]: 31%; Activity [10]: 7%; Activity [12]: 3%; Activity [15]: 72%; Activity [17]: 5%; inhibition [18]: Active; Activity [19]: 76%; inhibition [23]: Active; Activity [26]: Active; Activity [27]: 21%; Activity [28]: 64%; MBC [31]: > 512 µg/mL; MBC [32]: 128 µg/mL (≈ 386 µM); Activity [33]: 3%
2 | C[C@@H]1CN(c2c(F)c(N)c3c(=O)c(C(=O)O)cn(C4CC4)c3c2F)C[C@H](C)[N+]12CN1C(=N2)C(C(=O)O)=Cc2ccccc21.[Cl-] (stereo partly specified) | 64 | 73 | 4 | 32 | 8 |  | 4 | 8 | 2 | 4 | 2 | 32 | > 512 | 8 | 64 | > 512 | 8 | 64 | 4 | 32 | Activity [35]: 35%; Activity [36]: Non-Toxic; MIC [37]: 64 µg/mL; MIC [38]: 16 µg/mL; Activity [39]: Non-Toxic; log K [40]: -0.07; MBC [41]: 128 µg/mL; MBC [42]: 32 µg/mL
3 | CCn1cc(C(=O)O)c(=O)c2cc(F)c(N3CCNCC3)nc21 [ENOXACIN] | 0.25 (≈ 0.78 µM) |  | 0.125 (≈ 0.39 µM) | 0.5 (≈ 1.56 µM) | 0.5 (≈ 1.56 µM) | 28 | 0.125 (≈ 0.39 µM) | 1 (≈ 3.12 µM) | 0.032 (≈ 0.0999 µM) | 0.25 (≈ 0.78 µM) | 0.063 (≈ 0.197 µM) | 1 (≈ 3.12 µM) | 32 (≈ 99.9 µM) | 1 (≈ 3.12 µM) | 0.25 (≈ 0.78 µM) | 64 (≈ 200 µM) | 2 (≈ 6.24 µM) | 0.5 (≈ 1.56 µM) | 0.5 (≈ 1.56 µM) | 1 (≈ 3.12 µM) | Activity [7]: 8%; MIC [37]: 0.5 µg/mL (≈ 1.56 µM); Activity [10]: 27%; Activity [12]: 29%; MIC [38]: 0.25 µg/mL (≈ 0.78 µM); Activity [15]: 49%; Activity [17]: 27%; Activity [19]: 46%; log K [40]: 0.1564; MBC [41]: 1 µg/mL (≈ 3.12 µM); Activity [27]: 45%; Activity [28]: 49%; MBC [42]: 0.25 µg/mL (≈ 0.78 µM); MBC [31]: > 512 µg/mL; MBC [32]: 64 µg/mL (≈ 200 µM); Activity [33]: 7%
